From patent publication EP1935887A1, “Heterocyclic substituted carbonyl derivatives and their use as dopamine D3 receptor ligands” (Aventis Pharmaceuticals Inc., priority 2001, dated 2002)

What follows are molecules tested against T1, Cloned Human Dopamine D3 Receptors (Homo sapiens, UniProt P35462) (assay: [N-Methyl-3H]Spiroperidol binding to cloned human dopamine D3 receptors). Details: Table 2; unit inferred; read-out: d3Ki.
T1 construct: expressed in transfected cells; membrane homogenate
How it was run: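 Membranes from CHO cells stably expressing human D3 receptor, homogenised in 10% DMSO and stored at -80°C. Binding uses [N-methyl-3H]spiroperidol in Tris buffer, pH 7.7.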

T1 sequence (P35462 whole entry): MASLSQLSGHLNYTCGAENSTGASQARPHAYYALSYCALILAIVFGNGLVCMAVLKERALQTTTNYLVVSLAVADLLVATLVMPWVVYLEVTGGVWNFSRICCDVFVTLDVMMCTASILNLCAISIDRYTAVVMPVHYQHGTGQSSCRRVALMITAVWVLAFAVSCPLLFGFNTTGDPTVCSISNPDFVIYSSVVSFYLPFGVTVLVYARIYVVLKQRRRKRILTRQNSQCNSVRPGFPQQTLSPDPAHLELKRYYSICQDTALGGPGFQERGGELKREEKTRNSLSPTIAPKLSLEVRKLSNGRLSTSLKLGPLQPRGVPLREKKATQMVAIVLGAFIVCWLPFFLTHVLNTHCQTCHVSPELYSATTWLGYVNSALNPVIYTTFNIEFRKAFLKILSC

Compared with `O=C(Nc1cccc2c1CCCC2)[C@@H]1C[C@H]1CN1CCN(c2csc3cc(C(F)(F)F)ccc23)CC1` [compound 826078], `O=C(NC1CCCC1)[C@@H]1C[C@H]1CN1CCN(c2csc3cc(C(F)(F)F)ccc23)CC1` [compound 826658] is 9.5-fold lower in Ki: 0.162 µM for the first, 0.017 µM for the second. The second binds more tightly here.

Compared with `COc1cc(CNC(=O)[C@@H]2C[C@H]2CN2CCN(c3csc4cc(C(F)(F)F)ccc34)CC2)cc(OC)c1OC` [compound 826079], `O=C(NCCc1ccccn1)[C@@H]1C[C@H]1CN1CCN(c2csc3cc(C(F)(F)F)ccc23)CC1` [compound 826080] is 7.2-fold lower in Ki: 0.106 µM for the first, 0.0148 µM for the second. The second binds more tightly here.

`O=C(NC1CCCCCCCC1)[C@@H]1C[C@H]1CN1CCN(c2csc3cc(C(F)(F)F)ccc23)CC1` [compound 826655] and `O=C(NCCN1CCOCC1)[C@@H]1C[C@H]1CN1CCN(c2csc3cc(C(F)(F)F)ccc23)CC1` [compound 826656] are within 1.5-fold of each other in Ki: 0.031 µM for the first, 0.045 µM for the second.

`C[C@H]1CC[C@H](NC(=O)CCCN2CCCN(c3csc4cc(F)ccc34)CC2)CC1` [compound 826824] and `CC[C@H]1CC[C@H](NC(=O)CCCN2CCCN(c3csc4cc(F)ccc34)CC2)CC1` [compound 826826] are within 1.5-fold of each other in Ki: 0.0342 µM for the first, 0.0274 µM for the second.

First: CCOC(=O)[C@H]1CC[C@H](NC(=O)CCCN2CCCN(c3csc4cc(F)ccc34)CC2)CC1 [compound 826825]
Second: CC1CCCC(NC(=O)CCCN2CCCN(c3csc4cc(F)ccc34)CC2)C1 (centres unmarked) [compound 826827]
The Ki of the first is 1.9-fold higher: 0.0749 µM for the first, 0.0395 µM for the second.

Compared with `CCN(C(=O)CCCN1CCCN(c2csc3cc(F)ccc23)CC1)C1CCCCC1` [compound 826829], `O=C(CCCN1CCCN(c2csc3cc(F)ccc23)CC1)N(CCO)C1CCCCC1` [compound 826830] is 1.7-fold higher in Ki: 0.015 µM for the first, 0.0251 µM for the second. The first binds more tightly here.

Same assay, conditions: Table 2 part the 10th table; read-out: d3Ki

`O=C([C@@H]1C[C@H]1CN1CCN(c2csc3cc(C(F)(F)F)ccc23)CC1)N1CCCCC1` [compound 826081] and `O=C([C@@H]1C[C@H]1CN1CCN(c2csc3cc(C(F)(F)F)ccc23)CC1)N1CCCC1` [compound 826657] are within 1.5-fold of each other in Ki: 0.0186 µM for the first, 0.014 µM for the second.

First: O=C([C@@H]1CCCC[C@@H]1CN1CCN(c2csc3cc(C(F)(F)F)ccc23)CC1)N1CCCCC1 [compound 826119]
Second: O=C([C@@H]1C[C@H]1CN1CCCN(c2csc3cc(C(F)(F)F)ccc23)CC1)N1CCCC1 [compound 826683]
The Ki of the first is 59-fold higher: 0.219 µM for the first, 0.0037 µM for the second. The second binds more tightly here.

`CCOC(=O)C1CN(C(=O)[C@@H]2C[C@H]2CN2CCN(c3csc4cc(C(F)(F)F)ccc34)CC2)CCC1=O` (some centres unmarked) [compound 826659] and `CCOC(=O)C1CN(C(=O)C2CC2CN2CCCN(c3csc4cc(C(F)(F)F)ccc34)CC2)CCC1=O` (centres unmarked) [compound 826685] are within 1.5-fold of each other in Ki: 0.14 µM for the first, 0.154 µM for the second.

Going from `O=C([C@@H]1C[C@H]1CN1CCN(c2csc3cc(C(F)(F)F)ccc23)CC1)N1CCC(O)CC1` [compound 826660] to `O=C([C@@H]1C[C@H]1CN1CCCN(c2csc3cc(C(F)(F)F)ccc23)CC1)N1CCC(O)CC1` [compound 826686], the Ki falls from 0.053 µM to 0.026 µM (2-fold). The second binds more tightly here.

Compared with `NC(=O)C1CCN(C(=O)[C@@H]2C[C@H]2CN2CCN(c3csc4cc(C(F)(F)F)ccc34)CC2)CC1` [compound 826661], `NC(=O)C1CCN(C(=O)[C@@H]2C[C@H]2CN2CCCN(c3csc4cc(C(F)(F)F)ccc34)CC2)CC1` [compound 826687] is 5.3-fold higher in Ki: 0.025 µM for the first, 0.132 µM for the second.

Going from `O=C([C@@H]1C[C@H]1CN1CCN(c2csc3cc(C(F)(F)F)ccc23)CC1)N1CCC(Cc2ccccc2)CC1` [compound 826662] to `O=C([C@@H]1C[C@H]1CN1CCCN(c2csc3cc(C(F)(F)F)ccc23)CC1)N1CCC(Cc2ccccc2)CC1` [compound 826688], the Ki rises from 0.069 µM to 0.217 µM (3.1-fold).

Compared with `O=C([C@@H]1C[C@H]1CN1CCN(c2csc3cc(F)ccc23)CC1)N1CCCC1` [compound 826669], `O=C([C@@H]1C[C@H]1CN1CCN(c2csc3cc(F)ccc23)CC1)N1CCCCC1` [compound 826676] is 8.3-fold higher in Ki: 0.00024 µM for the first, 0.002 µM for the second.

`CCOC(=O)C1CN(C(=O)[C@@H]2C[C@H]2CN2CCN(c3csc4cc(F)ccc34)CC2)CCC1=O` (some centres unmarked) [compound 826671] and `CC1CCCC(C)N1C(=O)[C@@H]1C[C@H]1CN1CCN(c2csc3cc(F)ccc23)CC1` (some centres unmarked) [compound 826675] are within 1.5-fold of each other in Ki: 0.0068 µM for the first, 0.008 µM for the second.

Going from `O=C([C@@H]1C[C@H]1CN1CCN(c2csc3cc(F)ccc23)CC1)N1CCC(Cc2ccccc2)CC1` [compound 826673] to `N#CC1(c2ccccc2)CCN(C(=O)[C@@H]2C[C@H]2CN2CCN(c3csc4cc(F)ccc34)CC2)CC1` [compound 826674], the Ki rises from 0.0079 µM to 0.048 µM (6.1-fold).

Going from `N#CC1(c2ccccc2)CCN(C(=O)[C@@H]2C[C@H]2CN2CCCN(c3csc4cc(C(F)(F)F)ccc34)CC2)CC1` [compound 826689] to `O=C([C@@H]1C[C@H]1CN1CCCN(c2csc3cc(C(F)(F)F)ccc23)CC1)N1CCOCC1` [compound 826691], the Ki falls from 0.674 µM to 0.035 µM (19-fold). The second binds more tightly here.

First: CCOC(=O)C1CCN(C(=O)CCCN2CCCN(c3csc4cc(F)ccc34)CC2)CC1 [compound 826831]
Second: O=C(CCCN1CCCN(c2csc3cc(F)ccc23)CC1)N1CCC(O)CC1 [compound 826832]
The Ki of the first is 6.3-fold lower: 0.00255 µM for the first, 0.0161 µM for the second. The first binds more tightly here.

First: CC1CCCCN1C(=O)CCCN1CCCN(c2csc3cc(F)ccc23)CC1 (centres unmarked) [compound 826833]
Second: CC1CCCN(C(=O)CCCN2CCCN(c3csc4cc(F)ccc34)CC2)C1 (centres unmarked) [compound 826835]
The Ki of the first is 2.4-fold lower: 0.000872 µM for the first, 0.00212 µM for the second.

First: CC1CCN(C(=O)CCCN2CCCN(c3csc4cc(F)ccc34)CC2)CC1 [compound 826834]
Second: O=C(CCCN1CCCN(c2csc3cc(F)ccc23)CC1)N1CCC(N2CCCC2)CC1 [compound 826836]
The Ki of the first is 3.6-fold higher: 0.00801 µM for the first, 0.00223 µM for the second. The second binds more tightly here.

Same assay, conditions: d3Ki, Table 2 part the 10th table

Compared with `O=C([C@@H]1C[C@H]1CN1CCN(c2csc3cc(C(F)(F)F)ccc23)CC1)N1CCC(N2CCCC2)CC1` [compound 826664], `O=C([C@@H]1C[C@H]1CN1CCN(c2csc3cc(F)ccc23)CC1)N1CCC(O)CC1` [compound 826672] is 15-fold lower in Ki: 0.0094 µM for the first, 0.00064 µM for the second. The second binds more tightly here.

Same assay, conditions: read-out: d3Ki

Going from `CN(C)c1ccc(CNC(=O)[C@@H]2CCCC[C@H]2CN2CCN(c3csc4cc(C(F)(F)F)ccc34)CC2)cc1` [compound 826086] to `CN(C)c1ccc(CNC(=O)[C@@H]2CCCC[C@@H]2CN2CCN(c3csc4cc(C(F)(F)F)ccc34)CC2)cc1` [compound 826104], the Ki falls from 0.103 µM to 0.0168 µM (6.1-fold). The second binds more tightly here.

`Cc1cccc(CNC(=O)[C@@H]2CCCC[C@H]2CN2CCN(c3csc4cc(C(F)(F)F)ccc34)CC2)c1` [compound 826092] and `O=C(NCc1ccccc1)[C@@H]1CCCC[C@@H]1CN1CCN(c2csc3cc(C(F)(F)F)ccc23)CC1` [compound 826106] are within 1.5-fold of each other in Ki: 0.293 µM for the first, 0.23 µM for the second.

Going from `O=C(NCc1ccc2c(c1)OCO2)[C@@H]1CCCC[C@H]1CN1CCN(c2csc3cc(C(F)(F)F)ccc23)CC1` [compound 826098] to `O=C(NCc1ccc2c(c1)OCO2)[C@@H]1CCCC[C@@H]1CN1CCN(c2csc3cc(C(F)(F)F)ccc23)CC1` [compound 826115], the Ki falls from 0.451 µM to 0.0723 µM (6.2-fold).

Compared with `O=C(Nc1cccnc1)[C@@H]1CCCC[C@H]1CN1CCN(c2csc3cc(C(F)(F)F)ccc23)CC1` [compound 826100], `O=C(Nc1cccnc1)[C@@H]1CCCC[C@@H]1CN1CCN(c2csc3cc(C(F)(F)F)ccc23)CC1` [compound 826118] is 2.9-fold higher in Ki: 0.193 µM for the first, 0.568 µM for the second. The first binds more tightly here.

Compared with `O=C(NCc1nc2ccccc2[nH]1)[C@@H]1CCCC[C@@H]1CN1CCN(c2csc3cc(C(F)(F)F)ccc23)CC1` [compound 826102], `O=C(NCc1ccccn1)[C@@H]1CCCC[C@H]1CN1CCN(c2csc3cc(C(F)(F)F)ccc23)CC1` [compound 826120] is 2.3-fold higher in Ki: 0.21 µM for the first, 0.487 µM for the second.

`O=C(NC1CC1)[C@@H]1CCCC[C@@H]1CN1CCN(c2csc3cc(C(F)(F)F)ccc23)CC1` [compound 826105] and `O=C(NC1CC1)[C@@H]1CCCC[C@H]1CN1CCN(c2csc3cc(C(F)(F)F)ccc23)CC1` [compound 826121] are within 1.5-fold of each other in Ki: 0.69 µM for the first, 0.502 µM for the second.

`O=C(NCc1ccc(C(F)(F)F)cc1)[C@@H]1CCCC[C@@H]1CN1CCN(c2csc3cc(C(F)(F)F)ccc23)CC1` [compound 826108] and `O=C(NCc1ccco1)[C@@H]1CCCC[C@@H]1CN1CCN(c2csc3cc(C(F)(F)F)ccc23)CC1` [compound 826122] are within 1.5-fold of each other in Ki: 0.1 µM for the first, 0.13 µM for the second.

Going from `O=C(NC1CCCCC1)[C@@H]1CCCC[C@@H]1CN1CCN(c2csc3cc(C(F)(F)F)ccc23)CC1` [compound 826113] to `O=C(NC1CCCC1)[C@@H]1C[C@H]1CN1CCCN(c2csc3cc(C(F)(F)F)ccc23)CC1` [compound 826684], the Ki falls from 0.2 µM to 0.0079 µM (25-fold).

Compared with `COc1cc(CNC(=O)[C@@H]2CCCC[C@@H]2CN2CCN(c3csc4cc(C(F)(F)F)ccc34)CC2)cc(OC)c1OC` [compound 826116], `O=C(NCCc1ccccn1)[C@@H]1CCCC[C@@H]1CN1CCN(c2csc3cc(C(F)(F)F)ccc23)CC1` [compound 826117] is 4-fold higher in Ki: 0.0599 µM for the first, 0.241 µM for the second. The first binds more tightly here.

`C[C@H]1CC[C@H](NC(=O)[C@@H]2C[C@H]2CN2CCN(c3csc4cc(F)ccc34)CC2)CC1` [compound 826665] and `CC[C@H]1CC[C@H](NC(=O)[C@@H]2C[C@H]2CN2CCN(c3csc4cc(F)ccc34)CC2)CC1` [compound 826667] are within 1.5-fold of each other in Ki: 0.0019 µM for the first, 0.0025 µM for the second.

First: COC(=O)[C@H]1CC[C@H](NC(=O)[C@@H]2C[C@H]2CN2CCN(c3csc4cc(F)ccc34)CC2)CC1 [compound 826666]
Second: O=C(NC1CCCC1)[C@@H]1C[C@H]1CN1CCN(c2csc3cc(F)ccc23)CC1 [compound 826670]
The Ki of the first is 1.5-fold higher: 0.0063 µM for the first, 0.0042 µM for the second.

Compared with `O=C(NC1CCCCCCCC1)[C@@H]1C[C@H]1CN1CCN(c2csc3cc(F)ccc23)CC1` [compound 826668], `O=C(NC1CCCCC1)[C@@H]1C[C@H]1CN1CCN(c2csc3cc(F)ccc23)CC1` [compound 826677] is 1.7-fold lower in Ki: 0.0039 µM for the first, 0.0023 µM for the second.

First: CCOC(=O)[C@H]1CC[C@H](NC(=O)[C@@H]2C[C@H]2CN2CCCN(c3csc4cc(C(F)(F)F)ccc34)CC2)CC1 [compound 826679]
Second: CC[C@H]1CC[C@H](NC(=O)[C@@H]2C[C@H]2CN2CCCN(c3csc4cc(C(F)(F)F)ccc34)CC2)CC1 [compound 826680]
The Ki of the first is 6.4-fold lower: 0.0091 µM for the first, 0.058 µM for the second.

First: O=C(NC1CCCCCCCC1)[C@@H]1C[C@H]1CN1CCCN(c2csc3cc(C(F)(F)F)ccc23)CC1 [compound 826681]
Second: O=C(NCCN1CCOCC1)[C@@H]1C[C@H]1CN1CCCN(c2csc3cc(C(F)(F)F)ccc23)CC1 [compound 826682]
The Ki of the first is 2.1-fold lower: 0.048 µM for the first, 0.103 µM for the second.
